Laboratory results: BindingDB's records for doi:10.1021/jm960054c (Merck Research Laboratories, 1996)

Target: Growth hormone secretagogue receptor type 1 (Sus scrofa)
Experiment: Binding Affinity against Growth hormone secretagogue receptor of swine using [35S]MK-0677 as radioligand

CC(C)(N)CC(=O)N[C@H]1CCc2ccccc2N(Cc2ccc(-c3ccccc3-c3nnn[nH]3)cc2)C1=O [3-Amino-3-methyl-N-{(S)-2-oxo-1-[2'-(1H-tetrazol-5-yl)-biphenyl-4-ylmethyl]-2,3,4,5-tetrahydro-1H-benzo[b]azepin-3-yl}-butyramide]
Ki: > 5 µM

CC(C)(N)CC(=O)N[C@@H]1CCc2ccccc2N(Cc2ccc(-c3ccccc3-c3nnn[nH]3)cc2)C1=O [3-Amino-3-methyl-N-{2-oxo-1-[2'-(1H-tetrazol-5-yl)-biphenyl-4-ylmethyl]-2,3,4,5-tetrahydro-1H-benzo[b]azepin-3-yl}-butyramide]
Ki: 0.063 µM
